Experiment [1] has as its target T1, hKCNQ2/3 (Homo sapiens, UniProt O43525+O43526). Nature of the experiment: Fluorescence assay using a voltage sensitive dye. Format: cell-based. Details: expressed in transfected cells; host or cells: CHO-K1. The procedure:
Biological Data Fluorescence Assay Using a Voltage Sensitive Dye
Human CHO-K1 cells expressing KCNQ2/3 channels are cultivated adherently at 37° C., 5% CO2 and 95% humidity in cell culture bottles (e.g. 80 cm^2 TC flasks, Nunc) with DMEM-high glucose (Sigma Aldrich, D7777) including 10% FCS (PAN Biotech, e.g. 3302-P270521) or alternatively with MEM Alpha Medium (1×, liquid, Invitrogen, #22571), 10% fetal calf serum (FCS) (Invitrogen, #10270-106, heat-inactivated) and the necessary selection antibiotics.
Before being distributed for the measurements, the cells are washed with a 1×DPBS buffer without Ca^2+/Mg^2+ (e.g. Invitrogen, #14190-094) and detached from the bottom of the culture vessel by means of Accutase (PAA Laboratories, #L11-007) (incubation with Accutase for 15 min at 37° C.). The cell count then present is determined using a CASY™ cell counter (TCC model, Schärfe System) in order subsequently to apply, according to density optimization for the individual cell line, 20,000-30,000 cells/well/100 μl of the described nutrient medium to 96-well measuring plates of the Corning™ CellBIND™ type (Flat Clear Bottom Black Polystyrene Microplates, #3340). Incubation is then carried out for one hour at room temperature, without gassing or adjusting the humidity, followed by incubation for 24 hours at 37° C., 5% CO2 and 95% humidity.
The voltage-sensitive fluorescent dye from the Membrane Potential Assay Kit (Red™ Bulk format part R8123 for FLIPR, MDS Analytical Technologies™) is prepared by dissolving the contents of a vessel Membrane Potential Assay Kit Red Component A in 200 ml of extracellular buffer (ES buffer, 120 mM NaCl, 1 mM KCl, 10 mM HEPES, 2 mM CaCl2, 2 mM MgCl2, 10 mM glucose; pH 7.4). After removal of the nutrient medium, the cells are washed with 200 μl of ES buffer, then covered with a layer of 100 μl of the dye solution prepared above and incubated for 45 min at room temperature with the exclusion of light.
The fluorescence measurements are carried out with a BMG Labtech FLUOstar™ or BMG Labtech NOVOstar™ or BMG Labtech POLARstar™ instrument (525 nm excitation, 560 nm emission, Bottom Read mode). After incubation of the dye, 50 μl of the test substances in the desired concentrations, or 50 μl of ES buffer for control purposes, are introduced into separate cavities of the measuring plate and incubated for 30 min at room temperature while being shielded from light. The fluorescence intensity of the dye is then measured for 5 min and the fluorescence value F1 of each well is thus determined at a given, constant time. 15 μL of a 100 mM KCl solution ([…]) are then added to each well. The change in fluorescence is subsequently measured until all the relevant measured values have been obtained (mainly 5-30 min). At a given time after KCl application, a fluorescence value F2 is determined, in this case at the time of the fluorescence peak.
For calculation, the fluorescence intensity F2 is compared with the fluorescence intensity F1, and the agonistic activity of the target compound on the potassium channel is determined therefrom. F2 and F1 are calculated as follows:
[formula] In order to determine whether a substance has an agonistic activity,
[formula] for example, can be compared with
[formula] of control cells.
[formula] is determined by adding to the reaction batch only the buffer solution instead of the substance to be tested, determining the value F1K of the fluorescence intensity, adding the potassium ions as described above and measuring a value F2K of the fluorescence intensity. Then F2K and F1K are calculated as follows:
[formula] A substance has an agonistic activity on the potassium channel when
[formula] is greater than
[formula] Independently of the comparison of
[formula] it is also possible to conclude that a target compound has agonistic activity if an increase in
[formula] is to be observed as the dosage of the target compound increases. […]

Experiment [2] concerns the target T1, hKCNQ2/3. Nature of the experiment: Voltage clamp (patch-clamp) measurements. The note with it: for MAN rel eff @ 10 μm [RG = 1]: test substance 10 μM at −40 mV, increase in current standardized to retigabine (10 μM) effect = 1. The class given is cell-based. The arrangement: expressed in transfected cells; host or cells: CHO-K1 (stably transfected). How it is done: Voltage Clamp Measurements
In order to confirm a KCNQ2/3-agonistic action of the substances electrophysiologically, patch-clamp measurements (Hamill et al., 1981) were carried out in voltage clamp mode on a stably transfected hKCNQ2/3 CHO-K1 cell line. After formation of the gigaseal, the cells were first clamped at a holding potential of −60 mV. Thereafter, depolarizing voltage jumps were applied up to a potential of +20 mV (increment: 20 mV, duration: 1 second) in order to confirm the functional expression of KCNQ2/3-typical currents. The testing of the substances was carried out at a potential of −40 mV. The increase in current induced by retigabine (10 μM) at −40 mV was first recorded as a positive control on each cell. After complete washing out of the retigabine effect (duration: 80 s), the test substance (10 μM) was applied. The increase in current induced by the test substance was standardized to the retigabine effect and indicated as the relative efficacy (see below). Hamill O P, Marty A, Neher E, Sakmann B, Sigworth F J.: Improved patch-clamp techniques for high-resolution current recording from cells and cell-free membrane patches. Pflugers Arch. 1981 August; 391(2):85-100. Voltage-clamp measurements were carried out only for selected compounds: […]

Experiment [3] relates to male rats (Sprague-Dawley). Nature of the experiment: Formalin test, rat (second phase). The note with it: pain rate vs vehicle control, late phase. Format: in vivo. The procedure:
The investigations to determine the antinociceptive activity of the compounds were carried out in the formalin test on male rats (Sprague-Dawley, 150-170 g).
In the formalin test, a distinction is made between the first (early) phase (0-15 min after formalin injection) and the second (late) phase (15-60 min after formalin injection) (D. Dubuisson, S. G. Dennis, Pain 4, 161-174 (1977)). The early phase, as a direct reaction to the formalin injection, represents a model for acute pain, while the late phase is regarded as a model for persistent (chronic) pain (T. J. Coderre, J. Katz, A. L. Vaccarino, R. Meizack, Pain, Vol. 52, p. 259, 1993).
The compounds according to the invention were investigated in the second phase of the formalin test in order to obtain information about the activity of substances in the case of chronic/inflammatory pain.
A nociceptive reaction was induced in freely mobile test animals by means of a single subcutaneous formalin injection (50 μl, 5% strength) into the dorsal side of the right rear paw, the reaction manifesting itself in the following behaviour parameters: lifting and holding of the affected paw (score 1), shaking or twitching (score 2), licking and biting (score 3). The differing behaviors induced by the formalin injection were detected continuously by observation of the animals in the late phase of the formalin test and were weighted differently in an evaluation. Normal behavior, in which the animal puts its weight on all four paws equally, was recorded as score 0. The time of administration before the formalin injection was chosen in dependence on the mode of administration of the compounds according to the invention (intraperitoneal: 15 min, intravenous: 5 min). After injection of substances that have antinociceptive activity in the formalin test, the described behaviours (score 1-3) of the animals are reduced or even eliminated. […] The nociceptive behaviour was calculated as the so-called pain rate (PR). […] Based on the PR calculations, the activity of the substance was determined as the change compared with the control in percent.

A further experiment concerns rat. Put plainly: Chung test on the rat. Format: in vivo. The note with it: iv, i.v. administration. An excerpt: In addition, Example 89 was investigated in the Chung test on the rat.

We go through seven compounds from patent US8084470B2, “Substituted nicotinamide compounds and uses thereof” (Gruenenthal GmbH, priority 2007, dated 2011).

Consider `Cc1cccc(CNC(=O)c2cccnc2SCCS(=O)(=O)c2ccccc2)c1` [Example 65, 2-(2-(phenylsulfonyl)ethylthio)-N-(3-tolylmethyl)nicotinamide], for which the EC50 on hKCNQ2/3 [1] was 580 nM. At hKCNQ2/3 [2], the “MAN rel eff @ 10 μm [RG = 1]” value came out at 0.4.

Consider `O=C(NCc1cccs1)c1cccnc1SCCS(=O)(=O)c1ccccc1` [Example 89, 2-(2-(phenylsulfonyl)ethylthio)-N-(thiophen-2-ylmethyl)nicotinamide], for which, in experiment [3] (6.81 mg/kg i.v.), the Change in % was −74.2%. This compound also returned an ED50 in the experiment on rat of 6.3 mg/kg. For the same compound, the EC50 at hKCNQ2/3 [1] is 2280 nM; at hKCNQ2/3 [2] (patch-clamp, hKCNQ2/3 CHO-K1 cell line, read-out: MAN EC50), 1010 nM.

Regarding `O=C(NCc1cccs1)c1cccnc1SCCSc1cccc(C(F)(F)F)c1` [Example 73, N-(thiophen-2-ylmethyl)-2-(2-(3-(trifluoromethyl)phenylthio)ethylthio)-nicotinamide], in experiment [3] (1 mg/kg i.v.), the Change in % is given as −29.9%.

Regarding `Cc1ccc(CNC(=O)c2cccnc2SCCS(=O)(=O)c2ccccc2)o1` [Example 61, N-(5-methylfuran-2-ylmethyl)-2-(2-(phenylsulfonyl)ethylthio)nicotinamide], at hKCNQ2/3 [1], the EC50 is 3470 nM. In addition, the “MAN rel eff @ 10 μm [RG = 1]” value on hKCNQ2/3 [2] is given as 0.81.

Compound `O=C(NCc1ccccn1)c1cccnc1SCCS(=O)(=O)c1cccc(C(F)(F)F)c1` [Example 90, N-(pyridin-2-ylmethyl)-2-(2-(3-(trifluoromethyl)phenylsulfonyl)ethylthio)-nicotinamide] displayed a half-maximal effective concentration (EC50) at hKCNQ2/3 [1] of 2490 nM. In addition, the “MAN rel eff @ 10 μm [RG = 1]” value at hKCNQ2/3 [2] is on record as 0.79.

With `O=C(NCC1CCCCC1)c1cccnc1SCCS(=O)(=O)c1ccccc1` [Example 56, N-(cyclohexylmethyl)-2-(2-(phenylsulfonyl)ethylthio)nicotinamide], in experiment [3] (2.15 mg/kg i.v.), the Change in % is −34.1%. Also, the midpoint of the response on hKCNQ2/3 [1], the EC50, lay at 1010 nM. In addition, at hKCNQ2/3 [2], the “MAN rel eff @ 10 μm [RG = 1]” value worked out at 1.06.

At hKCNQ2/3 [1], `O=C(NCCC1CCCCC1)c1cccnc1SCCS(=O)(=O)c1ccccc1` [Example 58, N-(2-cyclohexylethyl)-2-(2-(phenylsulfonyl)ethylthio)nicotinamide] had an EC50 of 1180 nM. Besides, the “MAN rel eff @ 10 μm [RG = 1]” value at hKCNQ2/3 [2] was 0.47.
